Experimental findings from patent publication US9718809B2, “Bisarylsulfonamides useful in the treatment of inflammation and cancer” (Kancera AB, priority 2011, dated 2017) are described below.

Counter-ions that a name gives are not always drawn.

The subject of the first experiment is F-2,6-P2 in PANC-1 cells. As to the kind of experiment: Quantification of F-2,6-P2 (Van Schaftingen coupled enzyme assay) in PANC-1 cells. Format: cell-based, human. The settings on record: Homo sapiens; PANC-1 cells; read-out: IC50 based on quantification of F-2,6-P2. An outline of the steps: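 PANC-1 cells (~25 000/well) starved 18 h in glucose-free 0.25% FBS medium, treated 1 h with compound (50 and 10 μM, or dose response from 50 μM; 0.5% DMSO), then glucose added for 2 h at 37 °C. Cells lysed in NaOH; F-2,6-P2 quantified by PPi-PFK coupled NADH-consumption spectrophotometry.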
The IC50 is the concentration at which inhibition is half-maximal. Regarding `O=C(OC1CCN(Cc2ccccc2)C1)c1ccc(NS(=O)(=O)c2c(Cl)sc(Cl)c2Cl)cc1O` (stereo not drawn) [Example 204, 1-Benzylpyrrolidin-3-yl 2-hydroxy-4-{[(2,4,5-trichloro-3-thienyl)sulfonyl]amino}benzoate], the IC50 came out at 1.8 µM.

For the compound `O=C(OCCCN1CCOCC1)c1ccc(NS(=O)(=O)c2cc(-c3cc(F)ccc3O)c(Cl)s2)cc1O` [Example 213, 3-Morpholin-4-ylpropyl 4-({[5-chloro-4-(5-fluoro-2-hydroxyphenyl)-2-thienyl]sulfonyl}amino)-2-hydroxybenzoate trifluoroacetate], the IC50 is 0.6 µM.

`COC(=O)c1ccc(NS(=O)(=O)Cc2ccc(Br)cc2)cc1O` [Example 24, Methyl 4-{[(4-bromobenzyl)sulfonyl]amino}-2-hydroxybenzoate]: the IC50 worked out at 10.4 µM.

For `COC(=O)c1ccc(NS(=O)(=O)c2cccc(N3CCCCC3)c2)cc1O` [Example 142, Methyl 2-hydroxy-4-({[3-(piperidin-1-yl)phenyl]sulfonyl}amino)benzoate], the IC50 turned out to be 1.5 µM.

For the compound `COC(=O)c1ccc(NS(=O)(=O)c2cc(-c3cccnc3)c(Cl)s2)cc1O` [Example 111, Methyl 4-{[(5-chloro-4-pyridin-3-ylthiophen-2-yl)sulfonyl]amino}-2-hydroxybenzoate], the IC50 worked out at 4.6 µM.

Consider `COC(=O)c1ccc(NS(=O)(=O)c2cccc(-c3ccc4ncccc4c3)c2)cc1O` [Example 91, Methyl 2-hydroxy-4-{[(3-quinolin-6-ylphenyl)sulfonyl]amino}benzoate trifluoroacetate], for which the IC50 was found to be 4.5 µM.

For the compound `COC(=O)c1ccc(NS(=O)(=O)c2cc(Cl)sc2Cl)cc1O` [Example 25, Methyl 4-{[(2,5-dichloro-3-thienyl)sulfonyl]amino}-2-hydroxybenzoate], the IC50 amounted to 2.3 µM.

As for `COC(=O)c1ccc(NS(=O)(=O)c2cc(-c3ccc4c(c3)CCO4)cc(C(F)(F)F)c2)cc1O` [Example 116, Methyl 4-({[3-(2,3-dihydro-1-benzofuran-5-yl)-5-(trifluoromethyl)phenyl]sulfonyl}amino)-2-hydroxybenzoate], the IC50 came out at 1.7 µM.

Take `O=C(OC1CCOC1)c1ccc(NS(=O)(=O)c2cc(Cl)sc2Cl)cc1O` (stereo not drawn) [Example 67, Tetrahydrofuran-3-yl 4-{[(2,5-dichloro-3-thienyl)sulfonyl]amino}-2-hydroxybenzoate]: the IC50 worked out at 5.2 µM.

Turning to `O=C(OCCCN1CCOCC1)c1ccc(NS(=O)(=O)c2cc(Cl)c(Cl)s2)cc1O` [Example 63, 3-Morpholin-4-ylpropyl 4-{[(4,5-dichlorothiophen-2-yl)sulfonyl]amino}-2-hydroxybenzoate trifluoroacetate], the IC50 was 4 µM.

The experiment is the same for the next values; noted with them: at 12.5-50 μM in PANC-1 cells.
With `COC(=O)c1ccc(NS(=O)(=O)Cc2cccc(Br)c2)cc1O` [Example 23, Methyl 4-{[(3-bromobenzyl)sulfonyl]amino}-2-hydroxybenzoate], the “inhibition (F-2,6-P2 levels)” value is given as ≥ 50%.

As to `COC(=O)c1ccc(NS(=O)(=O)c2cc(Cl)c(-c3ccccc3OC)s2)cc1O` [Example 207, Methyl 4-({[4-chloro-5-(2-methoxyphenyl)thiophen-2-yl]sulfonyl}amino)-2-hydroxybenzoate], the “inhibition (F-2,6-P2 levels)” value was ≥ 50%.

In the case of `COC(=O)c1ccc(NS(=O)(=O)c2cncc(-c3cccc(OC)c3F)c2)cc1O` [Example 130, Methyl 4-({[5-(2-fluoro-3-methoxyphenyl)pyridin-3-yl]sulfonyl}amino)-2-hydroxybenzoate], the “inhibition (F-2,6-P2 levels)” value is given as ≥ 50%.

Consider `CN1CCN(CCCOC(=O)c2ccc(NS(=O)(=O)c3cc(Cl)c(Cl)s3)cc2O)CC1.O=C(O)C(F)(F)F` [Example 65, 3-(4-Methylpiperazin-1-yl)propyl 4-{[(4,5-dichlorothiophen-2-yl)sulfonyl]amino}-2-hydroxybenzoate trifluoroacetate], for which the “inhibition (F-2,6-P2 levels)” value is listed as ≥ 50%.

With `COC(=O)c1ccc(NS(=O)(=O)c2cccc(-c3ccc(C(F)(F)F)cc3)c2)cc1O` [Example 100, Methyl 2-hydroxy-4-({[4′-(trifluoromethyl)biphenyl-3-yl]sulfonyl}amino)benzoate], the “inhibition (F-2,6-P2 levels)” value is on record as ≥ 50%.
